From ChEMBL document CHEMBL5465560, “Selectivity Literature for EUbOPEN Chemogenomic Library” (2024)

Experiments:
[1] = target: Fibroblast growth factor receptor 1 (Homo sapiens, UniProt P11362); experiment: Selectivity interaction (Kinase panel (literature)) EUB0001199aCl FGFR1; conditions: at 1 µM
[2] = target: Cysteinyl leukotriene receptor 1 (Homo sapiens) (UniProt Q9Y271); experiment: Selectivity interaction (Eurofins CEREP Diversity Profile (receptors and ion channels)) EUB0000279b CYSLTR1; conditions: at 10 µM
[3] = target: T1, Mitogen-activated protein kinase kinase kinase 2 (Homo sapiens) (UniProt Q9Y2U5); experiment: Selectivity interaction (ActivX KiNativ screen (kinase selectivity in THP-1 cell lysates)) EUB0000639a MAP3K2; type: subcellular; conditions: lysate, at 0.2 µM
T1 sequence (whole entry): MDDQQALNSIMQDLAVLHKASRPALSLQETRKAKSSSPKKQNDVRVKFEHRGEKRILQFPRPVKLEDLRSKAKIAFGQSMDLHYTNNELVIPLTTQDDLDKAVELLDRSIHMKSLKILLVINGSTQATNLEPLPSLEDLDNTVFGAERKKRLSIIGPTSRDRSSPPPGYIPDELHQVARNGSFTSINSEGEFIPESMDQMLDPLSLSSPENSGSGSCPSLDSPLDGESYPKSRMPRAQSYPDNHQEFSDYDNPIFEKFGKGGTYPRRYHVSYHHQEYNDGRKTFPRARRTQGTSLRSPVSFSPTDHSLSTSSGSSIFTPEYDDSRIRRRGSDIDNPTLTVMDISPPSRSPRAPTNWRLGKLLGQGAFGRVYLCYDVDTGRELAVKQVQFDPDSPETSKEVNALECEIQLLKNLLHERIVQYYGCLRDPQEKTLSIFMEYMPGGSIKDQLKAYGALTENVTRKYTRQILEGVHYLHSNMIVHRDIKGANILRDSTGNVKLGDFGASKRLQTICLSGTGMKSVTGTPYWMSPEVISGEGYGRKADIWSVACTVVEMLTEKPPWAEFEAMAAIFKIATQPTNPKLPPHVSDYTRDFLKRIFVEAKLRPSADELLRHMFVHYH

[4] = target: Cyclin-dependent kinase 14 (Homo sapiens) (UniProt O94921); experiment: Selectivity interaction (KinomeScan (DiscoverX)) EUB0000092b CDK14; conditions: at 10 µM
[5] = target: T2, NUAK family SNF1-like kinase 1 (Homo sapiens) (UniProt O60285); experiment: Selectivity interaction (Ambit KINOMEscan and KiNATiv profiling in Jurkat cells) EUB0000090b NUAK1; type: cell-based; conditions: at 1 µM
T2 sequence (whole entry): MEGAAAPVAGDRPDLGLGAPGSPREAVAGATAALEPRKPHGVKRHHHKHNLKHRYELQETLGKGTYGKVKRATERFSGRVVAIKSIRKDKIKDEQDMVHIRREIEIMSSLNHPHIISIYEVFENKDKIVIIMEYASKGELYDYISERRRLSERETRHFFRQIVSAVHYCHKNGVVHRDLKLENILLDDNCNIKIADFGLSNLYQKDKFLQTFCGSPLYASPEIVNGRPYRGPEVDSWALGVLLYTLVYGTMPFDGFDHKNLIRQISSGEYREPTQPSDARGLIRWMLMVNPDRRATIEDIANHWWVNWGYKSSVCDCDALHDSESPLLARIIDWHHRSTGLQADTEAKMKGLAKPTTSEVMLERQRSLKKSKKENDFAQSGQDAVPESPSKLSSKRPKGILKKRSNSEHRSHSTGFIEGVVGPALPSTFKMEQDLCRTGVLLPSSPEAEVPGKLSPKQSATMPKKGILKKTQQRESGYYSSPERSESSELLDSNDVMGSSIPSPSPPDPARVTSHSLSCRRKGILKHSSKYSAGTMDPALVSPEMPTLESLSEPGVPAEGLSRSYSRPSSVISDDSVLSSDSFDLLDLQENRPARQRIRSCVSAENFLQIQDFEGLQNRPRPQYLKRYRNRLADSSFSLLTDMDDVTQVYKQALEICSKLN

[6] = target: T3, Phosphatidylinositol 5-phosphate 4-kinase type-2 alpha (Homo sapiens) (UniProt P48426); experiment: Selectivity interaction (ActivX KiNativ screen (ex vivo kinase selectivity in human PBMCs)) EUB0001619a PIP4K2A; type: cell-based; conditions: PBMC, at 1 µM
T3 sequence (whole entry): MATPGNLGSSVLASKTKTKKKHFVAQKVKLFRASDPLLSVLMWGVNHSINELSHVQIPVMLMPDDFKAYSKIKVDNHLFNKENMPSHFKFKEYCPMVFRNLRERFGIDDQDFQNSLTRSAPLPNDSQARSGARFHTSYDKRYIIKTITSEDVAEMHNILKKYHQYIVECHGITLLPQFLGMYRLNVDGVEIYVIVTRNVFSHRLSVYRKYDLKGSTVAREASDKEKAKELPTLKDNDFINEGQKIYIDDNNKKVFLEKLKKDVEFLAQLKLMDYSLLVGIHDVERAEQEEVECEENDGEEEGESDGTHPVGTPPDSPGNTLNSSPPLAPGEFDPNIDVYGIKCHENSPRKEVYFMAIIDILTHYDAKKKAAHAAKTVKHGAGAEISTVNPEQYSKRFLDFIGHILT

[7] = target: High affinity nerve growth factor receptor (Homo sapiens, UniProt P04629); experiment: Selectivity interaction (Upstate Kinase Profiler service (Millipore)) EUB0000056c NTRK1; conditions: at 1 µM
[8] = target: T1, Mitogen-activated protein kinase kinase kinase 2 (Homo sapiens); experiment: Selectivity interaction (KinomeScan (DiscoverX)) EUB0000695a MAP3K2; conditions: at 100 nM
[9] = target: T4, MAP/microtubule affinity-regulating kinase 4 (Homo sapiens) (UniProt Q96L34); experiment: Selectivity interaction (Kinase panel (Carna Biosciences)) EUB0001542aTs MARK4; conditions: at 1 µM
T4 sequence (whole entry): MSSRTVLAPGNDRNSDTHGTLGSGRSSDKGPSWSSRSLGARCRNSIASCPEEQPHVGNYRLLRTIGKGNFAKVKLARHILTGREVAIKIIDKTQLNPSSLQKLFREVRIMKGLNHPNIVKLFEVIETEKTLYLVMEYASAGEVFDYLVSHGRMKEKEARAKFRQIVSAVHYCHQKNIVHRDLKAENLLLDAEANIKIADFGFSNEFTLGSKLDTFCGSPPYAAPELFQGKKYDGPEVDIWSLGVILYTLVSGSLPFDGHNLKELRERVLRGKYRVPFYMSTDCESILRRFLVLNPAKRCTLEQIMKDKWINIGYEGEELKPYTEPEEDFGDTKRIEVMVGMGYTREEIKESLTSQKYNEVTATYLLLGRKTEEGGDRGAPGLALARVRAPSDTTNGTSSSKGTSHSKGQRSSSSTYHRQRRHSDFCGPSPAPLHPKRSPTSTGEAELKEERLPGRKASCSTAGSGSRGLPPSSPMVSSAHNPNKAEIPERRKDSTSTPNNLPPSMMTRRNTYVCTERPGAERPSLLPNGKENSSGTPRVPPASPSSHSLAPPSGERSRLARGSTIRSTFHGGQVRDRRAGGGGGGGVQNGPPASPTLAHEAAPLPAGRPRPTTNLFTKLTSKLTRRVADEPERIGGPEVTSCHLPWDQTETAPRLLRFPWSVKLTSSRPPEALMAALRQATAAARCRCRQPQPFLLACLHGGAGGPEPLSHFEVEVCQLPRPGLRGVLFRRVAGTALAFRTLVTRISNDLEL

Sequence of Cysteinyl leukotriene receptor 1 (Homo sapiens) (Q9Y271 whole entry): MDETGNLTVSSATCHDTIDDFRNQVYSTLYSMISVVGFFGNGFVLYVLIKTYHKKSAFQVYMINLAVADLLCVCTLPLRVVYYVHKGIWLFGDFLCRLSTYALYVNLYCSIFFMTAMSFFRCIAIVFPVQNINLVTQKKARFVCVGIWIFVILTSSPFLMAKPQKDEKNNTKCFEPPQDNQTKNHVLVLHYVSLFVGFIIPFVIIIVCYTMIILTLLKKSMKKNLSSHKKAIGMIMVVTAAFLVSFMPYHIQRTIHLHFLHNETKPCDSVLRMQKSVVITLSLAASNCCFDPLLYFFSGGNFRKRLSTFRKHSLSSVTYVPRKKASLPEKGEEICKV
Sequence of Cyclin-dependent kinase 14 (Homo sapiens) (O94921 whole entry): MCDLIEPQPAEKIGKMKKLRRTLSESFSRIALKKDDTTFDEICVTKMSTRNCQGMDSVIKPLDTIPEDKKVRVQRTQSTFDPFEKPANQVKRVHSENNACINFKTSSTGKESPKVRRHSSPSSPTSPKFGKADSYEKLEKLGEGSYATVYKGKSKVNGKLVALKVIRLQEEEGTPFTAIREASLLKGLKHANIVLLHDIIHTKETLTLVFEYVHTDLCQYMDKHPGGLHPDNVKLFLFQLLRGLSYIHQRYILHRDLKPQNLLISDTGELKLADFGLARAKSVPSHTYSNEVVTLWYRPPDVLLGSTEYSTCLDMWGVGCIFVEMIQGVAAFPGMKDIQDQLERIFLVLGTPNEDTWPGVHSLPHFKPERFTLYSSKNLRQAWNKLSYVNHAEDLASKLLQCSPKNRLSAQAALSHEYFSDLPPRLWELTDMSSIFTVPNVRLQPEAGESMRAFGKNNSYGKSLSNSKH
Sequence of High affinity nerve growth factor receptor (P04629 33-796 limits assumed): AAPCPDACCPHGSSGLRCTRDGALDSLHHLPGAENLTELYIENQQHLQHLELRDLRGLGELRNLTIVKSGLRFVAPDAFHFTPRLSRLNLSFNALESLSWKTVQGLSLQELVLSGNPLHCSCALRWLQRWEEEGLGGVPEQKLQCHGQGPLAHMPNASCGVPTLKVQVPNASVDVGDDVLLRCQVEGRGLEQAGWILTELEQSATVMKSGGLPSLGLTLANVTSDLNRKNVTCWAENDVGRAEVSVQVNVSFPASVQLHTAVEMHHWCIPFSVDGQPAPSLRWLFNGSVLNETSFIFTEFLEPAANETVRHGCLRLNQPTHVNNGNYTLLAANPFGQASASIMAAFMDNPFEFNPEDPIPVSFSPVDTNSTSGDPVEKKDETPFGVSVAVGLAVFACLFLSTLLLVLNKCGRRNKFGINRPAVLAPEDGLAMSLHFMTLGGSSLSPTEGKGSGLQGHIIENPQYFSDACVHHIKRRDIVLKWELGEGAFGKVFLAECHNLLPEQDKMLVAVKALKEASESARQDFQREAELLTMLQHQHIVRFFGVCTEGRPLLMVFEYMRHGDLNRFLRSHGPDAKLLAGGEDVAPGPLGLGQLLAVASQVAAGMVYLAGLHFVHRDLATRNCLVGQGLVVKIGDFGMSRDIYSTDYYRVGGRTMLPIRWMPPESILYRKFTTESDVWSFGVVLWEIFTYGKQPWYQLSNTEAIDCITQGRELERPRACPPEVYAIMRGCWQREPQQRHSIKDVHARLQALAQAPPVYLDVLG
Sequence of Fibroblast growth factor receptor 1 (P11362 22-822 limits assumed): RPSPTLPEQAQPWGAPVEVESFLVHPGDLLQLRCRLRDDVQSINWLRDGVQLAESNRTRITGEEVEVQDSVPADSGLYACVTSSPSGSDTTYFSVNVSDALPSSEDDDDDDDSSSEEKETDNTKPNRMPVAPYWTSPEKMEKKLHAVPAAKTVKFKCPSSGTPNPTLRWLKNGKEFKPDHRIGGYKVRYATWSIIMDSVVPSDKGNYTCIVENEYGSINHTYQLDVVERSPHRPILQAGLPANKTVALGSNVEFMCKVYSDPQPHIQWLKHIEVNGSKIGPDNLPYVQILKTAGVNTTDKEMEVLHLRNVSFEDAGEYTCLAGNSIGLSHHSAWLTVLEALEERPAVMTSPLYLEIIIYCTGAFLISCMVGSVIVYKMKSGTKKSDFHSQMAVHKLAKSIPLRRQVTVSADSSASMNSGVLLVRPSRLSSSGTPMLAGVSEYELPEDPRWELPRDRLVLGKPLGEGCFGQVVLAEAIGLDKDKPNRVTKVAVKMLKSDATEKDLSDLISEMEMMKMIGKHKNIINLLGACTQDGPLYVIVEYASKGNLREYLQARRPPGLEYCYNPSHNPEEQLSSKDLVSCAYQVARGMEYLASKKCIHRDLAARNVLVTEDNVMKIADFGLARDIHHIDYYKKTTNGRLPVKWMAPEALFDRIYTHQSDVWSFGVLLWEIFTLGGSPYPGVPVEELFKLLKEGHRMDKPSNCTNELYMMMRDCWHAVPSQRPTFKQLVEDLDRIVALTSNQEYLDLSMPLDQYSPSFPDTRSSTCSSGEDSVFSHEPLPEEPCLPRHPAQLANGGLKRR

CN1Cc2nccc(-c3cn(C)nc3-c3ccc(F)cc3)c2C1=O
% of inhibition [1]: 3%

CC(=O)c1cc(-c2ccccc2OCC2CC2)c2ncccn12
% of control [2]: 103%

CC[C@@H]1[C@H](F)C(=O)N[C@@H]1COc1nccc2cc(C(N)=O)c(OC)cc12 [ZIMLOVISERTIB]
% of inhibition [3]: -1.4%

CCC(=O)N1CCN(c2ccc(-n3c(=O)ccc4cnc5ccc(-c6cnc7ccccc7c6)cc5c43)cc2C(F)(F)F)CC1
% of control [4]: 99%

CN(C)C/C=C/C(=O)Nc1ccc(C(=O)N2CCCC(Nc3ncc(Cl)c(-c4c[nH]c5ccccc45)n3)C2)cc1 (centres undefined)
% of control [5]: 84%

N#Cc1cccc(-c2c[nH]c3ncnc(N4CCOCC4)c23)c1
% of inhibition [6]: 2%

Cc1ccc(-c2ccc3c(ccc4sc5c(c43)NC[C@@H](C)NC5=O)n2)cn1
% of inhibition [7]: 3%

Cc1cc(F)c(C(=O)Nc2cccc(-c3nncn3C(C)C)n2)cc1-n1cnc(C2CC2)c1
% of control [8]: 100%

Cn1cc(Nc2nccc(N3CC4CCC(C3)N4C(=O)[C@@H]3CC3(F)F)n2)cn1
% of inhibition [9]: 59%
